From patent US20250171437A1 (Agios Pharmaceuticals,Inc., priority 2022, published 2025)

Target: T1, human PAH with the R408W mutation (A375 R408W cells) (Homo sapiens, UniProt P00439, R408W)
T1 construct: expressed in transfected cells
T1 sequence (P00439 1-452 R408W): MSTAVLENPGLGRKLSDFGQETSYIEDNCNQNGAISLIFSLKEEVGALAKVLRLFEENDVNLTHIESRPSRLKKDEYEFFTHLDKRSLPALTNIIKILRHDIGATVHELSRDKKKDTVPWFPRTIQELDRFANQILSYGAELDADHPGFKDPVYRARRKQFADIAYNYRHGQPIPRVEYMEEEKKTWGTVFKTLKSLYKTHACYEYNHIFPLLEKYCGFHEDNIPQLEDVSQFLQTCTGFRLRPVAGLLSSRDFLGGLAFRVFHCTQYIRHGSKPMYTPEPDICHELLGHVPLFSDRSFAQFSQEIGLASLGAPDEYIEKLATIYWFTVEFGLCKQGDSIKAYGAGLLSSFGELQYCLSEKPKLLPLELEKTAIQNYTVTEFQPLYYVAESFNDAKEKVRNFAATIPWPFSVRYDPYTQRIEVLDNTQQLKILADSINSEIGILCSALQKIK
Test: Cell Based Phenylalanine Flux Assay
Conditions: A375 cells expressing R408W PAH; 24 hrs with compound, then 20 μM sepiapterin and 800 μM 13C9,15N-Phenylalanine for 4 hours; 13C-Tyrosine by LC-MS; average where tested multiple times
Procedure, shortened: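 A375 cells stably expressing lentiviral human PAH R408W were treated with compounds (10-point 2-fold dilutions, 0.5% DMSO, duplicate) for 24 h at 37 °C. Then 20 μM sepiapterin and 800 μM 13C9,15N-Phe were added for 4 h; media 13C-Tyr was measured by LC-MS to give AC50.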

Row | Structure (SMILES) | AC50 [µM]
1 | O=C(c1cnn2cc(N3CCC(O)CC3)ccc12)N1CCc2[nH]cnc2C1c1nc2c(F)cc(F)cc2o1 (centres unmarked) [listing 1 of 2 here] | ≥ 5
2 | O=C(c1ccn(-c2ccccn2)n1)N1CCc2[nH]cnc2C1c1nc2ccccc2o1 (centres unmarked) [listing 1 of 2 here] | ≥ 5
3 | Cn1cncc1-c1nnc(C(=O)N2CCc3[nH]cnc3C2c2nc3c(F)ccc(F)c3o2)o1 (centres unmarked) [listing 1 of 2 here] | ≥ 5
4 | O=C(c1ccn(-c2ccccn2)n1)N1CCc2[nH]cnc2C1c1nc2cccc(F)c2o1 (centres unmarked) [listing 1 of 2 here] | ≥ 5
5 | Cc1cccc2nc(C3c4nc[nH]c4CCN3C(=O)c3ccn(-c4ccccn4)n3)oc12 (centres unmarked) [listing 1 of 2 here] | ≥ 5
6 | O=C(c1cnn2cc(N3CCC(O)CC3)ccc12)N1CCc2[nH]cnc2C1c1nc2ccccc2o1 (centres unmarked) | 1 to 5
7 | O=C(c1cnn2cc(N3CCC(O)CC3)ccc12)N1CCc2[nH]cnc2C1c1nc2c(F)c(F)ccc2o1 (centres unmarked) | ≥ 5
8 | O=C(c1cnn2cc(N3CCC(O)CC3)ccc12)N1CCc2[nH]cnc2C1c1nc2c(F)cc(F)cc2o1 (centres unmarked) [listing 2 of 2 here] | 1 to 5
9 | COc1ccc2oc(C3c4nc[nH]c4CCN3C(=O)c3cnn4cc(N5CCC(O)CC5)ccc34)nc2c1 (centres unmarked) | ≥ 5
10 | Cc1cccc2nc(C3c4nc[nH]c4CCN3C(=O)c3cnn4cc(N5CCC(O)CC5)ccc34)oc12 (centres unmarked) | 1 to 5
11 | CC(C)(O)c1nc(C(F)F)c(C(=O)N2CC(C)(C)c3[nH]cnc3C2c2nc3cc(F)ccc3o2)o1 (centres unmarked) | ≥ 5
12 | CC(C)(O)c1nc(C(F)F)c(C(=O)N2CCCc3[nH]cnc3C2c2nc3cc(F)ccc3o2)o1 (centres unmarked) | 1 to 5
13 | CC(C)(O)c1nc(C(F)F)c(CN2CCc3[nH]cnc3C2c2nc3cc(F)ccc3o2)o1 (centres unmarked) | ≥ 5
14 | O=C(c1ccn(CC(F)F)n1)N1CCc2[nH]cnc2C1c1nc2c(F)cccc2o1 (centres unmarked) | 1 to 5
15 | O=C(c1ccn(CC(F)F)n1)N1CCc2[nH]cnc2C1c1nc2cccc(F)c2o1 (centres unmarked) | 1 to 5
16 | O=C(c1ccn(CC(F)F)n1)N1CCc2[nH]cnc2C1c1nc2ccccc2o1 (centres unmarked) | 1 to 5
17 | O=C(c1ccn(-c2ccccn2)n1)N1CCc2[nH]cnc2C1c1nc2ccccc2o1 (centres unmarked) [listing 2 of 2 here] | 1 to 5
18 | O=C(c1ccnn1-c1ccccn1)N1CCc2[nH]cnc2C1c1nc2ccccc2o1 (centres unmarked) | 1 to 5
19 | Cc1cccc2nc(C3c4nc[nH]c4CCN3C(=O)c3ccnn3C3CC3)oc12 (centres unmarked) | 1 to 5
20 | CC(C)(O)c1nnc(C(=O)N2CCc3[nH]cnc3C2c2nc3c(F)ccc(F)c3o2)o1 (centres unmarked) | 1 to 5
21 | CC(C)(O)c1ncc(C(=O)N2CCc3[nH]cnc3C2c2nc3ccc(F)cc3o2)o1 (centres unmarked) | 1 to 5
22 | CC1(C)CN(C(=O)c2ocnc2C(F)F)C(c2nc3cc(F)ccc3o2)c2nc[nH]c21 (centres unmarked) | ≥ 5

Row | Structure (SMILES) | AC50 [µM]
23 | O=C(c1nnc(-c2cnn(C(F)F)c2)o1)N1CCc2[nH]cnc2C1c1nc2cc(C(F)(F)F)ccc2o1 (centres unmarked) | ≥ 5
24 | O=C(c1nnc(-c2ccn(C(F)F)n2)o1)N1CCc2[nH]cnc2C1c1nc2cc(C(F)(F)F)ccc2o1 (centres unmarked) | 1 to 5
25 | O=C(c1nnc(-c2cnn(C(F)F)c2)o1)N1CCc2[nH]cnc2C1c1nc2cccc(C(F)(F)F)c2o1 (centres unmarked) | 1 to 5
26 | Cn1cnc(-c2nnc(C(=O)N3CCc4[nH]cnc4C3c3nc4cccc(C(F)(F)F)c4o3)o2)c1 (centres unmarked) | 1 to 5
27 | Cn1cncc1-c1nnc(C(=O)N2CCc3[nH]cnc3C2c2nc3cccc(C(F)(F)F)c3o2)o1 (centres unmarked) | 1 to 5
28 | COc1ccc(-c2nnc(C(=O)N3CCc4[nH]cnc4C3c3nc4cc(C(F)(F)F)ccc4o3)o2)nc1 (centres unmarked) | 1 to 5
29 | Fc1ccc2oc(C3c4nc[nH]c4CCN3Cc3ocnc3C(F)F)nc2c1 (centres unmarked) | ≥ 5
30 | Cn1cncc1-c1nnc(C(=O)N2CCc3[nH]cnc3C2c2nc3c(F)ccc(F)c3o2)o1 (centres unmarked) [listing 2 of 2 here] | 1 to 5
31 | Cc1nnc(C(=O)N2CCc3[nH]cnc3C2c2nc3c(F)ccc(F)c3o2)o1 (centres unmarked) | 1 to 5
32 | O=C(c1nnc(-c2ccncn2)o1)N1CCc2[nH]cnc2C1c1nc2cc(F)ccc2o1 (centres unmarked) | 1 to 5
33 | CC(C)n1nccc1C(=O)N1CCc2[nH]cnc2C1c1nc2cccc(F)c2o1 (centres unmarked) | 1 to 5
34 | O=C(c1ccn(-c2ccccn2)n1)N1CCc2[nH]cnc2C1c1nc2cccc(F)c2o1 (centres unmarked) [listing 2 of 2 here] | 1 to 5
35 | Cn1nccc1C(=O)N1CCc2[nH]cnc2C1c1nc2cccc(F)c2o1 (centres unmarked) | 1 to 5
36 | COc1cccc2nc(C3c4nc[nH]c4CCN3C(=O)c3ccnn3-c3ccccn3)oc12 (centres unmarked) | 1 to 5
37 | Cc1cccc2nc(C3c4nc[nH]c4CCN3C(=O)c3ccnn3C(C)C)oc12 (centres unmarked) | ≥ 5
38 | Cc1cccc2nc(C3c4nc[nH]c4CCN3C(=O)c3ccnn3-c3ccccn3)oc12 (centres unmarked) | 1 to 5
39 | Cc1cccc2nc(C3c4nc[nH]c4CCN3C(=O)c3ccn(-c4ccccn4)n3)oc12 (centres unmarked) [listing 2 of 2 here] | 1 to 5
40 | Cc1ncoc1C(=O)N1CC2(CC2)c2[nH]cnc2C1c1nc2cc(F)ccc2o1 (centres unmarked) | 1 to 5
41 | CC1CN(C(=O)c2oc(C(C)(C)O)nc2C(F)F)C(c2nc3cc(F)ccc3o2)c2nc[nH]c21 (centres unmarked) [listing 1 of 4 here] | ≥ 5
42 | CC1CN(C(=O)c2oc(C(C)(C)O)nc2C(F)F)C(c2nc3cc(F)ccc3o2)c2nc[nH]c21 (centres unmarked) [listing 2 of 4 here] | 1 to 5
43 | CC1CN(C(=O)c2oc(C(C)(C)O)nc2C(F)F)C(c2nc3cc(F)ccc3o2)c2nc[nH]c21 (centres unmarked) [listing 3 of 4 here] | 1 to 5
44 | CC1CN(C(=O)c2oc(C(C)(C)O)nc2C(F)F)C(c2nc3cc(F)ccc3o2)c2nc[nH]c21 (centres unmarked) [listing 4 of 4 here] | 1 to 5

Further lines, results first:

Row | AC50 [µM] | Structure (SMILES)
45 | 1 to 5 | CC(C)(O)c1nc(C(F)F)c(C(=O)N2CCc3[nH]cnc3C2c2nc3cc(C#N)ccc3o2)o1 (centres unmarked)
46 | ≥ 5 | Cc1ccc2oc(C3c4nc[nH]c4CCN3C(=O)c3nc(C)nn3C)nc2c1 (centres unmarked) [listing 1 of 2 here]
47 | ≥ 5 | Cn1nc(C(C)(C)C)nc1C(=O)N1CCc2[nH]cnc2C1c1nc2ccccc2o1 (centres unmarked) [listing 1 of 2 here]
48 | ≥ 5 | Cn1nc(C(C)(C)C)cc1C(=O)N1CCc2[nH]cnc2C1c1nc2ccccc2o1 (centres unmarked) [listing 1 of 2 here]
49 | ≥ 5 | COc1cccc2nc(C3c4nc[nH]c4CCN3C(=O)c3cc(C(C)(C)C)nn3C)oc12 (centres unmarked) [listing 1 of 2 here]
50 | ≥ 5 | Cn1nc(C(C)(C)C)cc1C(=O)N1CCc2[nH]cnc2C1c1nc2cccc(F)c2o1 (centres unmarked) [listing 1 of 2 here]
51 | ≥ 5 | CC(C)(O)c1nnc(C(=O)N2CCc3[nH]cnc3C2c2nc3cc(F)ccc3o2)o1 (centres unmarked) [listing 1 of 2 here]
52 | ≥ 5 | Cc1ccc2oc(C3c4nc[nH]c4CCN3C(=O)c3nnc(C(C)(C)O)o3)nc2c1 (centres unmarked) [listing 1 of 2 here]
53 | ≥ 5 | Cc1ccc2nc(C3c4nc[nH]c4CCN3C(=O)c3nnc(C(C)(C)O)o3)oc2c1 (centres unmarked) [listing 1 of 2 here]
54 | ≥ 5 | Cc1ccc2oc(C3c4nc[nH]c4CCN3C(=O)c3cnco3)nc2c1 (centres unmarked) [listing 1 of 2 here]
55 | ≥ 5 | Cc1ccc2oc(C3c4nc[nH]c4CCN3C(=O)c3nnc(C)o3)nc2c1 (centres unmarked) [listing 1 of 2 here]
56 | ≥ 5 | Cc1ccc2nc(C3c4nc[nH]c4CCN3C(=O)c3cnco3)oc2c1 (centres unmarked) [listing 1 of 2 here]
57 | ≥ 5 | Cc1ccc2nc(C3c4nc[nH]c4CCN3C(=O)c3cnn4cc(CN(C)C)ccc34)oc2c1 (centres unmarked) [listing 1 of 2 here]
58 | 1 to 5 | Cc1ccc2nc(C3c4nc[nH]c4CCN3C(=O)Cc3nncs3)oc2c1 (centres unmarked)
59 | 1 to 5 | Cn1ncnc1C(=O)N1CCc2[nH]cnc2C1c1nc2ccccc2o1 (centres unmarked)
60 | 1 to 5 | Cc1nc(C(=O)N2CCc3[nH]cnc3C2c2nc3c(F)cccc3o2)n(C)n1 (centres unmarked)
61 | 1 to 5 | Cc1nc(C(=O)N2CCc3[nH]cnc3C2c2nc3ccccc3o2)n(C)n1 (centres unmarked)
62 | 1 to 5 | Cc1ccc2oc(C3c4nc[nH]c4CCN3C(=O)c3nc(C)nn3C)nc2c1 (centres unmarked) [listing 2 of 2 here]
63 | 1 to 5 | COc1ccc2oc(C3c4nc[nH]c4CCN3C(=O)c3nc(C)nn3C)nc2c1 (centres unmarked)
64 | 1 to 5 | Cc1nc(C(=O)N2CCc3[nH]cnc3C2c2nc3c(F)ccc(F)c3o2)n(C)n1 (centres unmarked)
65 | 1 to 5 | Cn1nc(C(C)(C)C)nc1C(=O)N1CCc2[nH]cnc2C1c1nc2ccccc2o1 (centres unmarked) [listing 2 of 2 here]

Row | AC50 [µM] | Structure (SMILES)
66 | 1 to 5 | COc1cccc2nc(C3c4nc[nH]c4CCN3C(=O)c3nc(C(C)(C)C)nn3C)oc12 (centres unmarked)
67 | 1 to 5 | Cc1cccc2nc(C3c4nc[nH]c4CCN3C(=O)c3nc(C(C)(C)C)nn3C)oc12 (centres unmarked)
68 | 1 to 5 | Cn1nc(C(C)(C)C)nc1C(=O)N1CCc2[nH]cnc2C1c1nc2cccc(F)c2o1 (centres unmarked)
69 | 1 to 5 | Cc1cccc2nc(C3c4nc[nH]c4CCN3C(=O)c3cc(C(C)(C)C)nn3C)oc12 (centres unmarked)
70 | 1 to 5 | COc1cccc2nc(C3c4nc[nH]c4CCN3C(=O)c3cc(C(C)(C)C)nn3C)oc12 (centres unmarked) [listing 2 of 2 here]
71 | 1 to 5 | Cn1nc(C(C)(C)C)cc1C(=O)N1CCc2[nH]cnc2C1c1nc2ccccc2o1 (centres unmarked) [listing 2 of 2 here]
72 | 1 to 5 | Cn1nc(C(C)(C)C)cc1C(=O)N1CCc2[nH]cnc2C1c1nc2cccc(F)c2o1 (centres unmarked) [listing 2 of 2 here]
73 | 1 to 5 | CC(C)(O)c1nnc(C(=O)N2CCc3[nH]cnc3C2c2nc3cc(F)ccc3o2)o1 (centres unmarked) [listing 2 of 2 here]
74 | 1 to 5 | CC(C)(O)c1cc(C(=O)N2CCc3[nH]cnc3C2c2nc3cc(F)ccc3o2)on1 (centres unmarked)
75 | 1 to 5 | Cc1ccc2oc(C3c4nc[nH]c4CCN3C(=O)c3nnc(C(C)(C)O)o3)nc2c1 (centres unmarked) [listing 2 of 2 here]
76 | 1 to 5 | Cc1ccc2nc(C3c4nc[nH]c4CCN3C(=O)c3nnc(C(C)(C)O)o3)oc2c1 (centres unmarked) [listing 2 of 2 here]
77 | 1 to 5 | Cn1ccc(-c2nnc(C(=O)N3CCc4[nH]cnc4C3c3nc4cc(C(F)(F)F)ccc4o3)o2)n1 (centres unmarked)
78 | 1 to 5 | Cn1ncnc1C(=O)N1CCc2[nH]cnc2C1c1nc2c(F)ccc(F)c2o1 (centres unmarked)
79 | 1 to 5 | Cc1ccc2oc(C3c4nc[nH]c4CCN3C(=O)c3cnco3)nc2c1 (centres unmarked) [listing 2 of 2 here]
80 | 1 to 5 | Cc1ccc2oc(C3c4nc[nH]c4CCN3C(=O)c3nnc(C)o3)nc2c1 (centres unmarked) [listing 2 of 2 here]
81 | 1 to 5 | Cc1ccc2nc(C3c4nc[nH]c4CCN3C(=O)c3cnco3)oc2c1 (centres unmarked) [listing 2 of 2 here]
82 | ≥ 5 | Cc1ccc2nc(C3c4nc[nH]c4CCN3C(=O)c3nnc(C)o3)oc2c1 (centres unmarked)
83 | 1 to 5 | Cc1cccc2nc(C3c4nc[nH]c4CCN3C(=O)c3ncnn3C)oc12 (centres unmarked)
84 | 1 to 5 | Cc1ccc2oc(C3c4nc[nH]c4CCN3C(=O)c3cnn4cc(CN(C)C)ccc34)nc2c1 (centres unmarked)
85 | 1 to 5 | Cc1ccc2nc(C3c4nc[nH]c4CCN3C(=O)c3cnn4cc(CN(C)C)ccc34)oc2c1 (centres unmarked) [listing 2 of 2 here]
86 | ≥ 5 | O=C(c1nnc(CCN2CC(F)C2)o1)N1CCc2[nH]cnc2C1c1nc2cc(F)ccc2o1 (centres unmarked)
